In PubChem BioAssay (NCI) one finds TGI data, which are given here for 13 molecules.

Common to all, as to test: NCI anticancer screen, dose series, 48 h
The test system of assay [1] is HCT-116 colon.
Assay [2] deals with HOP-92 NSCLC.
The test system of assay [3] is KM12 colon.
In assay [4] the test system is MDA-N.
Assay [5] concerns NCI-H460 lung.
Assay [6] deals with NCI/ADR-RES ovarian.
Assay [7] has as its system RPMI-8226 leukemia.
The subject of assay [8] is SK-MEL-5 melanoma.
Assay [9] concerns SNB-19 CNS.
For assay [10], the system named is UACC-62 melanoma.

The structures appear in SMILES notation.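 Values below derive from 48-hour exposures of cells grown in 96-well plates, with endpoints linearly interpolated between the two concentrations bracketing the appropriate inhibition level. Definition used: TGI = concentration required for complete inhibition of growth.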

As for `CCCCCCCCCCCCCCCC(=O)N(CCCCCCCCCCC(=O)O)CC(O)C(O)C(OC1OC(CO)C(O)C(O)C1O)C(O)CO` (stereo not given), the TGI was more than 100 µM in [1]; more than 100 µM in [2]; 34 µM in assay [3]; more than 100 µM in assay [4]; more than 100 µM in assay [5]; 61.1 µM in assay [6]. Besides, the TGI in assay [7] is 49.8 µM; in assay [8], more than 100 µM; in assay [9], 52.9 µM; in assay [10] it was 34.7 µM.

On to `CCOP(=O)(OCC)C(C#N)Cc1ccco1` (stereo not given), for which the TGI in [1], in assay [2], in assay [3], in [4], in [5] and in assay [6] was more than 10 µM each time. For the same molecule, the TGI in assay [7], in [8], in assay [9] and in assay [10] was more than 10 µM in each case.

For the molecule `O=CC12C3CCC1C2C(=O)C3` (stereo not given), the TGI in [1], in assay [2], in [3], in [4], in assay [5] and in [6] was more than 100 µM throughout. Besides, the TGI in assay [7], in assay [8], in assay [9] and in assay [10] was more than 100 µM throughout.

As to `CCCCCCCCCCCCCCCCOC[C@@H](COC(c1ccccc1)(c1ccccc1)c1ccccc1)O[P+](=S)OC` (stereo not given in full), the TGI came to 14.1 µM in assay [1]; 26.2 µM in [2]; 19.2 µM in assay [3]; 5.53 µM in [4]; 5.8 µM in assay [5]; 59.8 µM in [6]. For the same molecule, the TGI turned out to be 14.7 µM in assay [7], 22.4 µM in assay [8], 21.3 µM in assay [9] and 14.5 µM in assay [10].

As to `CCOP(=O)(OCC)C(N)c1ccc(Cl)cc1` (stereo not given), the TGI in [1], in assay [2], in [3], in assay [4], in [5] and in assay [6] was more than 100 µM in each case. Moreover, the TGI in assay [7], in assay [8], in assay [9] and in [10] was more than 100 µM throughout.

With `COc1ccc(N2C=Nn3c(nc4sc5c(c4c3=O)CCCC5)C2)cc1`, the TGI in assay [1] is more than 100 µM; in assay [2], 41.8 µM; in assay [3] it was more than 100 µM; in [4], more than 100 µM; in assay [5] it was more than 100 µM; in assay [6], more than 100 µM. In addition, the TGI in [7], in [8], in assay [9] and in [10] was more than 100 µM throughout.

In the case of `Cc1ccc(NC(=O)CSc2nc(=O)[nH]c3nc[nH]c23)cc1`, the TGI in assay [1], in assay [2], in assay [3], in assay [4], in assay [5] and in assay [6] was more than 100 µM each time. Also, the TGI in assay [7], in assay [8], in assay [9] and in assay [10] was more than 100 µM in each case.

For the molecule `Clc1ccc(C2Nc3ccccc3C3=NCCN32)cc1` (stereo not given), the TGI in assay [1] amounted to 71.5 µM; in assay [2] it was 34 µM; in assay [3], 40.2 µM; in assay [4] it was 39.8 µM; in assay [5], 53 µM; in [6], 60.4 µM. For the same molecule, the TGI in [7] turned out to be 42.4 µM; in assay [8], 34.4 µM; in [9], 94.9 µM; in [10], 32.3 µM.

Turning to `Cc1c2c(OCCN3CCCCC3)nn(C)c(=O)c2c(C)n1-c1ccccc1`, the TGI in [1], in assay [2], in [3], in assay [4], in assay [5] and in assay [6] was more than 100 µM in each case. Further, the TGI in assay [7] is 95.1 µM; in assay [8], 32.1 µM; in assay [9], more than 100 µM; in assay [10], more than 100 µM.

As to `CCOC(=O)c1sc2[n+](c1C)C(=O)/C(=C/c1ccc([N+](=O)[O-])cc1)S2`, the TGI in [1] was 54.7 µM; in [2], more than 100 µM; in [3] it was 47.5 µM; in [4], 66.9 µM; in [5], 45 µM; in [6] it was 42.5 µM. Moreover, the TGI is 67.3 µM in assay [7], 72.1 µM in [8], more than 100 µM in [9] and 40.3 µM in assay [10].

`COc1ccc(C2SCC(=O)N2NC(=O)c2ccc(NC(C)=O)cc2)cc1` (stereo not given): the TGI in assay [1] is more than 100 µM; in assay [2] it was 89.2 µM; in [3], more than 100 µM; in [4], more than 100 µM; in [5], more than 100 µM; in assay [6] it was more than 100 µM. The TGI in assay [7], in assay [8], in assay [9] and in assay [10] was more than 100 µM in each case.

For `C=C1C(=O)O[C@@H]2C[C@]3(C)CC[C@]4(C)[C@H](CC[C@@H]5[C@@]6(C)CCC(=O)C(C)(C)[C@@H]6CC[C@]54C)[C@H]3[C@H]12`, the TGI was 31.3 µM in assay [1]; 26.2 µM in assay [2]; 42.8 µM in assay [3]; 30.9 µM in assay [4]; 35 µM in [5]; 66.7 µM in [6]. The TGI in [7] was 5.8 µM; in [8], 25.1 µM; in assay [9], more than 60.6 µM; in assay [10], 32.9 µM.

For the molecule `CN(C)CCCn1nc(N)c2nc3cc(Cl)ccc3nc21`, the TGI was more than 100 µM in assay [1]; 76.7 µM in assay [2]; more than 100 µM in assay [3]; more than 100 µM in [4]; more than 100 µM in [5]; more than 100 µM in assay [6]. Also, the TGI in assay [7] is more than 100 µM; in assay [8] it was 41.3 µM; in assay [9], more than 100 µM; in assay [10] it was 45 µM.
